“And” between values parts separate entries of the source, which are not always exact repeats. Identical values can stand only once.
Assays:
[1] = test system: T-lymphocyte 1/rpt-1 regulatory protein (J03776); assay: Microarray gene expression in cardiac tissue of Tempol-fed mice; type: in vivo; settings: 5 mg/g of food from 14 to 31 months
Experimental: (§1) To assess the effects of Tempol on gene expression, Tempol was administered to experimental mice at a dose of 5 mg/g of food from 14 months to 31 months after birth. Mice receiving the same food without the addition of Tempol were used as a negative control. At the age of 31 months, the experimental animals were sacrificed and the hearts were surgically removed. The expression of a broad spectrum of genes in the cardiac tissue was assessed using chip-based microarray technology. Such chips are well known in the art and are widely used to assess gene expression.

[2] = test system: Serum amyloid P-component precursor (SAP) (Y00426); assay: as above; type: in vivo
Experimental: as §1

[3] = test system: Interferon γ-inducible protein/IRG 47GTP-binding (M63690); assay: as above; type: in vivo; settings: 5 mg/g of food from 14 to 31 months
Experimental: as §1

CD53 antigen (X97227) = assay: as above; type: in vivo; settings: 5 mg/g of food from 14 to 31 months
Experimental: as §1

[4] = test system: Serum amyloid A-1 protein precursor (M13521); assay: as above; type: in vivo
Experimental: as §1

CD52 antigen (M55561) = assay: as above; type: in vivo; settings: 5 mg/g of food from 14 to 31 months
Experimental: as §1

Hsp-90 homolog (W62326) = assay: as above; type: in vivo; settings: 5 mg/g of food from 14 to 31 months
Experimental: as §1

[5] = test system: Interferon α-induced 11.5 kd protein (P27) (AA120109); assay: as above; type: in vivo; settings: 5 mg/g of food from 14 to 31 months
Experimental: as §1

[6] = test system: XPE UV-damaged DNA binding factor (W62091); assay: as above; type: in vivo; settings: 5 mg/g of food from 14 to 31 months
Experimental: as §1

[7] = test system: XPE-DNA damage binding protein (AA104319); assay: as above; type: in vivo; settings: 5 mg/g of food from 14 to 31 months
Experimental: as §1

[8] = test system: Lymphocyte receptor/polyubiquitin (W13546); assay: as above; type: in vivo; settings: 5 mg/g of food from 14 to 31 months
Experimental: as §1

[9] = test system: Selenium-binding protein 2 (M32032); assay: as above; type: in vivo; settings: 5 mg/g of food from 14 to 31 months
Experimental: as §1

[10] = test system: Interferon induced protein (AA013783); assay: as above; type: in vivo; settings: 5 mg/g of food from 14 to 31 months
Experimental: as §1

Cyclophilin A (AA116993) = assay: as above; type: in vivo; settings: 5 mg/g of food from 14 to 31 months
Experimental: as §1

[11] = test system: Interferon-inducible protein (AA002526); assay: as above; type: in vivo; settings: 5 mg/g of food from 14 to 31 months
Experimental: as §1

JAK-1 (AA066354) = assay: as above; type: in vivo
Experimental: as §1

[12] = test system: T-cell specific GTPase (U15636); assay: as above; type: in vivo; settings: 5 mg/g of food from 14 to 31 months
Experimental: as §1

Cathepsin B (M65270) = assay: as above; type: in vivo
Experimental: as §1

[13] = test system: Immunophilin (FKBP25) (AA120298); assay: as above; type: in vivo; settings: 5 mg/g of food from 14 to 31 months
Experimental: as §1

[14] = test system: Eukaryotic translation initiation factor for E binding protein 1 (EIF4EBP1); assay: Microarray gene expression in adipose tissue of Tempol-fed mice; type: in vivo
Experimental: (§2) In a further gene expression study, Tempol was administered to experimental mice at a dose of 5 g/kg of diet from 12 months through 15 months. Mice receiving the same diet without the addition of Tempol were used as a negative control. At the age of 15 months, the adipose tissue of the experimental animals was obtained. The expression of a broad spectrum of genes in the adipose tissue was assessed using chip-based microarray technology. Specifically, in this case an Affymetrix MOE430A 2.0 array, containing 12,960 genes, was employed. Such chips are well known in the art and are widely used to assess gene expression.

[15] = test system: Eukaryotic translation initiation factor 4 E2 (EIF4E2); assay: as above; type: in vivo
Experimental: as §2

Caspase 3 [16] = assay: as above; type: in vivo
Experimental: as §2

Cyclooxygenase 1 (COX-1) = assay: as above; type: in vivo
Experimental: as §2

[17] = test system: serum amyloid P-component precursor; assay: Circulating serum protein levels in patient after Tempol treatment; type: in vivo, human; settings: 1500 mg per day for 180 days
Text: (§3) This may be administered in a single dose, or may be administered as a number of smaller doses over a 24-hour period: for example, three 500-mg doses at eight-hour intervals. Following treatment, the circulating serum protein levels of serum amyloid P-component precursor, serum amyloid A-1 protein precursor, JAK-1, cathepsin B, eukaryotic translation initiation factor 4E member 2, cyclooxygenase-1, and caspase 3 are reduced. Furthermore, the serum protein levels of eukaryotic translation initiation factor 4E binding protein are increased.
as §3, with “JAK-1, and” for “JAK-1,”

cathepsin B = assay: as above; type: in vivo, human; settings: 1500 mg per day for 180 days
Text: as §3
as §3, with “JAK-1, and” for “JAK-1,”

[18] = test system: eukaryotic translation initiation factor 4E member 2; assay: as above; type: in vivo, human; settings: 1500 mg per day for 180 days
Text: as §3
as §3, with “JAK-1, and” for “JAK-1,”

[19] = test system: serum amyloid A-1 protein precursor; assay: as above; type: in vivo, human; settings: 1500 mg per day for 180 days
Text: as §3
as §3, with “JAK-1, and” for “JAK-1,”

caspase 3 [20] = assay: as above; type: in vivo, human; settings: 1500 mg per day for 180 days
Text: as §3
as §3, with “JAK-1, and” for “JAK-1,”

JAK-1 = assay: as above; type: in vivo, human; settings: 1500 mg per day for 180 days
Text: as §3
as §3, with “JAK-1, and” for “JAK-1,”

cyclooxygenase-1 = assay: as above; type: in vivo, human; settings: 1500 mg per day for 180 days
Text: as §3
as §3, with “JAK-1, and” for “JAK-1,”

[21] = test system: eukaryotic translation initiation factor 4E binding protein; assay: as above; type: in vivo, human; settings: 1500 mg per day for 180 days
Text: as §3
as §3, with “JAK-1, and” for “JAK-1,”

[22] = cardiac tissue of experimental mice, Table 1
[23] = adipose tissue of experimental mice, Table 4
[24] = Example 1: 70-kilogram patient with symptoms of dementia
[25] = Example 2: 70-kilogram patient with familial risk factors, no symptoms of dementia

CC1(C)CC(O)CC(C)(C)N1[O] [Tempol, 4-hydroxy-2,2,6,6-tetramethylpiperidine-1-oxyl]
Fold change ([1]; TEMPOL-treated vs control mice): −2.7 fold | Expression, TEMPOL-treated mice (tp51, tp52, tp53) ([1]; individual mice): 17 and 42 and 29 | Fold change ([2]; Y00426, cardiac tissue, TEMPOL-treated vs control mice, 5 mg/g of food from 14 to 31 months): −2.8 fold | Expression, TEMPOL-treated mice (tp51, tp52, tp53) ([2]; Y00426, cardiac tissue, individual mice, 5 mg/g of food from 14 to 31 months): 43 and 61 and 119 | expression of serum amyloid P component precursor reduced [2, 22]: 2.8 fold | Fold change ([3]; TEMPOL-treated vs control mice): −2.0 fold | Expression, TEMPOL-treated mice (tp51, tp52, tp53) ([3]; individual mice): 29 and 20 and 1 | Fold change (CD53 antigen (X97227); TEMPOL-treated vs control mice): −2.1 fold | Expression, TEMPOL-treated mice (tp51, tp52, tp53) (CD53 antigen (X97227); individual mice): 21 and −17 and −13 | Fold change ([4]; M13521, cardiac tissue, TEMPOL-treated vs control mice, 5 mg/g of food from 14 to 31 months): −2.5 fold | Expression, TEMPOL-treated mice (tp51, tp52, tp53) ([4]; M13521, cardiac tissue, individual mice, 5 mg/g of food from 14 to 31 months): 6 and 1 and 8 | expression of serum amyloid A-1 protein precursor reduced [4, 22]: 2.5 fold | Fold change (CD52 antigen (M55561); TEMPOL-treated vs control mice): −3.5 fold | Expression, TEMPOL-treated mice (tp51, tp52, tp53) (CD52 antigen (M55561); individual mice): 106 and 177 and 171 | Fold change (Hsp-90 homolog (W62326); TEMPOL-treated vs control mice): −2.4 fold | Expression, TEMPOL-treated mice (tp51, tp52, tp53) (Hsp-90 homolog (W62326); individual mice): 6 and 16 and 39 | Fold change ([5]; TEMPOL-treated vs control mice): −2.3 fold | Expression, TEMPOL-treated mice (tp51, tp52, tp53) ([5]; individual mice): 149 and 88 and 72 | Fold change ([6]; TEMPOL-treated vs control mice): −2.9 fold | Expression, TEMPOL-treated mice (tp51, tp52, tp53) ([6]; individual mice): 61 and 75 and 213 | Fold change ([7]; TEMPOL-treated vs control mice): −5.2 fold | Expression, TEMPOL-treated mice (tp51, tp52, tp53) ([7]; individual mice): 25 and 37 and 115 | Fold change ([8]; TEMPOL-treated vs control mice): −55.2 fold | Expression, TEMPOL-treated mice (tp51, tp52, tp53) ([8]; individual mice): −16 and −66 and 1331 | Fold change ([9]; TEMPOL-treated vs control mice): −2.1 fold | Expression, TEMPOL-treated mice (tp51, tp52, tp53) ([9]; individual mice): 554 and 600 and 670 | Fold change ([10]; TEMPOL-treated vs control mice): −4.9 fold | Expression, TEMPOL-treated mice (tp51, tp52, tp53) ([10]; individual mice): −81 and 27 and 41 | Fold change (Cyclophilin A (AA116993); TEMPOL-treated vs control mice): −2.1 fold | Expression, TEMPOL-treated mice (tp51, tp52, tp53) (Cyclophilin A (AA116993); individual mice): 12 and −14 and −10 | Fold change ([11]; TEMPOL-treated vs control mice): −2.7 fold | Expression, TEMPOL-treated mice (tp51, tp52, tp53) ([11]; individual mice): 26 and 34 and 36 | Fold change (JAK-1 (AA066354); AA066354, cardiac tissue, TEMPOL-treated vs control mice, 5 mg/g of food from 14 to 31 months): −5.1 fold | Expression, TEMPOL-treated mice (tp51, tp52, tp53) (JAK-1 (AA066354); AA066354, cardiac tissue, individual mice, 5 mg/g of food from 14 to 31 months): 124 and 22 and 30 | expression of JAI(-1 reduced) (JAK-1 (AA066354); [22]): 5.1 fold | Fold change ([12]; TEMPOL-treated vs control mice): −2.0 fold | Expression, TEMPOL-treated mice (tp51, tp52, tp53) ([12]; individual mice): 146 and 79 and 164 | Fold change (Cathepsin B (M65270); M65270, cardiac tissue, TEMPOL-treated vs control mice, 5 mg/g of food from 14 to 31 months): −2.8 fold | Expression, TEMPOL-treated mice (tp51, tp52, tp53) (Cathepsin B (M65270); M65270, cardiac tissue, individual mice, 5 mg/g of food from 14 to 31 months): −12 and 6 and 13 | expression of cathepsin B reduced (Cathepsin B (M65270); cardiac tissue of experimental mice, text restating Table 2): 2.8 fold | Fold change ([13]; TEMPOL-treated vs control mice): −2.1 fold | Expression, TEMPOL-treated mice (tp51, tp52, tp53) ([13]; individual mice): 200 and 154 and 164 | Mean (Tempol-treated mice) ([14]; EIF4EBP1, 5 g/kg of diet from 12 through 15 months, Affymetrix MOE430A 2.0 array): 4737 | Fold change ([14]; EIF4EBP1, Tempol-treated vs control mice, 5 g/kg of diet from 12 through 15 months): 1.29 fold | expression of EIF4E binding protein 1 upregulated ([14]; Table 3): 1.29 fold | Mean (Tempol-treated mice) ([15]; EIF4E2, 5 g/kg of diet from 12 through 15 months, Affymetrix MOE430A 2.0 array): 873 | Fold change ([15]; EIF4E2, Tempol-treated vs control mice, 5 g/kg of diet from 12 through 15 months): −1.23 fold | expression of the EIF4E2 protein downregulated ([15]; Table 4): 1.23 fold | Mean (Tempol-treated mice) (Caspase 3 [16]; Caspase 3, adipose tissue, 5 g/kg of diet from 12 through 15 months, Affymetrix MOE430A 2.0 array): 414 | Fold change (Caspase 3 [16]; Caspase 3, adipose tissue, Tempol-treated vs control mice, 5 g/kg of diet from 12 through 15 months): −1.47 fold | expression of caspase 3 reduced (Caspase 3 [16]; [23]): 1.47 fold | Mean (Tempol-treated mice) (Cyclooxygenase 1 (COX-1); COX-1, adipose tissue, 5 g/kg of diet from 12 through 15 months, Affymetrix MOE430A 2.0 array): 331 | Fold change (Cyclooxygenase 1 (COX-1); COX-1, adipose tissue, Tempol-treated vs control mice, 5 g/kg of diet from 12 through 15 months): −1.18 fold | expression of COX-1 reduced (Cyclooxygenase 1 (COX-1); [23]): 1.18 fold | circulating serum protein level of serum amyloid P-component precursor [17, 24]: reduced | circulating serum protein level of serum amyloid P-component precursor [17, 25]: reduced | circulating serum protein level of cathepsin B (cathepsin B; [24]): reduced | circulating serum protein level of cathepsin B (cathepsin B; [25]): reduced | circulating serum protein level of eukaryotic translation initiation factor 4E member 2 [18, 24]: reduced | circulating serum protein level of eukaryotic translation initiation factor 4E member 2 [18, 25]: reduced | circulating serum protein level of serum amyloid A-1 protein precursor [19, 24]: reduced | circulating serum protein level of serum amyloid A-1 protein precursor [19, 25]: reduced | circulating serum protein level of caspase 3 (caspase 3 [20]; [24]): reduced | circulating serum protein level of caspase 3 (caspase 3 [20]; [25]): reduced | circulating serum protein level of JAK-1 (JAK-1; [24]): reduced | circulating serum protein level of JAK-1 (JAK-1; [25]): reduced | circulating serum protein level of cyclooxygenase-1 (cyclooxygenase-1; [24]): reduced | circulating serum protein level of cyclooxygenase-1 (cyclooxygenase-1; [25]): reduced | serum protein level of eukaryotic translation initiation factor 4E binding protein [21, 24]: increased | serum protein level of eukaryotic translation initiation factor 4E binding protein [21, 25]: increased

Source: patent US20090042937A1, “[…] USE IN TREATING OR […]-RELATED DISEASES” (priority 2005, published 2009)
